The record followed here is patent US8486968B2, “Compounds” (Boehringer Ingelheim International GmbH, priority 2010, dated 2013).

A word on the melting point: it is the temperature of the solid-liquid transition. In general, IC50 refers to the concentration that inhibits the measured activity by half.

Data set [1] has as its target T1, mPGES-1 (Homo sapiens, UniProt O14684).
T1 sequence (O14684 1-152): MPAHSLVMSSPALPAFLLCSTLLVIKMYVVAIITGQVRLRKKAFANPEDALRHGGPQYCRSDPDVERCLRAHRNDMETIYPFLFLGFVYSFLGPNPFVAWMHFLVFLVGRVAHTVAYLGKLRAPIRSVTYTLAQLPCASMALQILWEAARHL
Description: mPGES-1 enzyme assay (HTRF detection of PGE2). Type of data set: biochemical. Details: made in house; host or cells: Rosetta E. coli (membrane/microsome fraction). The method, then:
Microsomes from Rosetta E. coli bacteria expressing recombinant human mPGES-1 can be derived as described below:
Inoculate 5 ml LB with Ampicilin (50 μg/ml) and Chloramphenicol (34 μg/ml) with bacteria from freeze culture. Incubate 8 h at 37° C. with 200 rpm. Thereafter, inoculate 500-1000 ml LB containing Amp and Chloro with the 5 ml on culture and grow to OD640 of 0.8-1.0. Chill the culture to +4° C. before induction. Induce the culture with IPTG at a final concentration of 400 μM. Express the protein at room temp 18-23° C. with 200 rpm shaking over night.
The following steps can be performed on the following day: • 1. Spin down the cells in 250 ml centrifuge flasks for 15 min at 7000 rpm (Beckmann Coulte Avanti J-E centrifuge) • 2. Dissolve the pellet from 250 ml culture in 12.5 ml homogenization buffer • 3. (15 mM Tris-HCL pH8, 1 mM EDTA pH8, […], 2.5 mM GSH, 1 Tablet Protease inhibitor per 50 ml buffer) • 4. Disintegrate the cells by sonication, 5×10 seconds at 48% amplitude of a 750 W sonifier • 5. Add 2.5 ml MgCl2 (100 mM) and DNase 12.5 μl (0.8 mg/ml) and incubate on ice for 30 min • 6. Spin down the bacteria debris and save the supernatant, 7000 rpm for 15 min • 7. Isolate the protein containing membranes in the supernatant by ultracentrifugation 120000×g for 2 hour at 4° C. (Sorvall T880 rotor). • 8. Discard the supernatant and dissolve the pellet in 20 mM Potassium phosphate buffer pH 7.4 (KH2PO4 and K2HPO4) buffer by sonication (5×10 s, 30% of a 50 W sonifier) and aliquot the enzyme and store aliquots at −80° C.
Before each experiment is performed an aliquot of the enzyme is thawed and it can then be dissolved in 0.1 M Potassium phosphate buffer pH7.4 (KH2PO4 and K2HPO4) buffer containing 2.5 mM GSH.
The aim of this assay is the determine the affinity of a test compound for the mPGES-1 enzyme.
47 μl of recombinant human mPGES-1 (˜0.5 μg protein/well) containing microsomal suspension in a buffer containing GSH, (2.5 mmol/L L-Glutathione reduced, dissolved in 0.1 mol/L Phosphat Buffer pH 7.4) is dispensed in a 384-well plate and thereafter 1 μl of the test compound(s) is/are added and incubated for 25 minutes at room temperature. The enzyme reaction is started by the addition of 2 μl PGH2 (final conc. 2 μM) dissolved in water-free Diglyme. After 60 seconds the reaction is terminated by addition of a stop solution containing FeCl2 (10 μL 0.074 mol/l FeCl2). The samples are diluted between 1:25 in PBS (Phosphate Buffered Saline). 10 μl of the diluted samples are transferred to 384-well low volume plate. In order to quantify the amount of PGE2 that has been formed, a homogenous time resolved fluorescent (HTRF) detecting of PGE2 has been performed using a commercially available kit from Cisbio according to the manufactures recommendation. This HTRF-based assay has been described in detail (see: Goedken et al., J Biomol Screen, 2008, 13(7), 619-625). Briefly, the diluted samples are mixed with 5 μl PGE2-d2 conjungate and 5 μl anti-PGE2 cryptate conjungate. After an incubation period of the plates over night, the fluorescence is measured by the use of an appropriate microplate reader.
The fluorescence of Europium cryptate (maxex=307 nm, maxem=620 nm) and d2-PGE2 (maxex=620 nm, maxem=665 nm) are measured.
The extent of the specific HTRF is measured as a ratio of the emission intensity at 665 nm vs. that at 620 nm at an excitation puls of 320 nm. The quantification plate contains also wells with different concentrations of PGE2 as calibration curve for the calculation of the PGE2 concentrations from the HTRF ratio values.
From all mPGES enzyme assay the background is subtracted and the IC50 is calculated over a nonlinear regression with conventional software.
In general terms: TR-FRET usually uses a lanthanide donor and a delayed reading to cut background.

For data set [2], the target named is T1, mPGES-1. Description: A549 cell-based assay (PGE2 formation, IL-1β stimulated, 50% human serum). On the set-up: host or cells: A549 cells. The method, then:
Although the enzymatic assay is a high throughput assay the disadvantage is that it uses a recombinant protein which is not in its natural environment. Accordingly a cellular assay was established in which a cell line of human origin (A549) expressing the mPGES-1 protein was used. In addition in order to mimic the situation in humans in which compounds can be bound to plasma proteins 50% human serum is added in the assay. By having the combination of testing mPGES-1 in a cellular environment and the presence of 50% human serum this assay has a higher relevance to judge the therapeutic potential of a mPGES-inhibitor than the pure enzyme assay.
A549 cells (ATCC: CCL-185) are grown to about 90% confluence in F-12K Nutrient Mixture (Kaighn's Mod. Gibco) containing 10% FBS in a humified incubator at 37° C. and 5% CO2. Cells were detached using Trypsin-EDTA. A549 cells were seeded in a 384-well collagene plate at a density of 7000 cells/well (50 μl) in F-12 medium containing 1% Penicillin-Streptomycin and 50% human serum. The cells were allowed to attach for 3-4 h. After that the cells were incubated for 20-24 h in F-12k medium supplemented with 50% human serum, 1% Penicillin-Streptomycin and containing IL-1β at a final concentration of 5 ng/ml as well as 10 nM arachidonic acid in the presence of a vehicle or a test compound. The total volume is 100 μl.
Concentrations of PGE2 in the cell free medium (10 μl) were measured using a commercially available HTRF kit from Cisbio (as described above). The PGE2 formation in the absence of test compound was taken as 100%.
IC50 values were derived from at 6-8 point titrations using conventional software.

The mark [3] stands for this setting: recombinant human mPGES-1 microsomes, PGH2 2 μM, Table A, read-out: mPGES-1 inhibitory effect, IC50, enzyme assay.
The mark [4] stands for this setting: A549 cells, IL-1β 5 ng/ml, 20-24 h, Table B, read-out: mPGES-1 inhibitory effect, IC50, cell assay.
The mark [5] stands for this setting: Table C comparison of enzym and cell IC50, read-out: Enzym IC50.
The mark [6] stands for this setting: Table C comparison of enzym and cell IC50, A549 cells, read-out: Cell IC50.

As to `CC(C)(C)C(=O)NCc1ccc(Cl)c(Nc2nc3cc(C(=O)N[C@H]4CC[C@H](C(F)(F)F)CC4)c(N4CCC(C(F)(F)F)CC4)nc3n2C2CC2)c1Cl` [Example 26], the melting point was 198 to 200 °C. Further, the IC50 in data set [1] (setting [3]) came to 4 nM. Moreover, the IC50 in data set [2] (setting [4]) turned out to be 7 nM.

In the case of `CC(C)(C)C(=O)NCc1ccc(Cl)c(Nc2nc3cc(C(=O)N[C@H]4CC[C@H](C(F)(F)F)CC4)c(N4CCC(C(F)(F)F)CC4)nc3n2CC(F)F)c1Cl` [Example 27], the melting point lay within 172 to 174 °C. The IC50 in data set [1] (setting [3]) came to 3 nM. The IC50 in data set [2] (setting [4]) was 2 nM.

In turn, `CC(C)(C)C(=O)NCc1ccc(Cl)c(Nc2nc3cc(C(=O)N[C@H]4CC[C@H](C(F)(F)F)CC4)c(N4CCC(C(F)(F)F)CC4)nc3n2CC(N)=O)c1Cl` [Example 28] came in with a melting point of 189 to 191 °C. In data set [1] (setting [3]), the IC50 worked out at 1 nM. The IC50 in data set [2] (setting [4]) was determined as 3 nM.

Consider `Cn1c(Nc2c(Cl)ccc(CNC(=O)C(C)(C)C)c2Cl)nc2cc(C(=O)N[C@H]3CC[C@H](C(F)(F)F)CC3)c(N3CCC(C(F)(F)F)CC3)nc21` [Example 30, N-(trans-4-Trifluoromethyl-cyclohexyl)-2-{2,6-dichloro-3-[(2,2-dimethyl-propionylamino)-methyl]-phenylamino}-5-[4-trifluoromethyl-piperidinyl]-3-methyl-3H-imidazo[4,5-b]pyridine-6-carboxamide], for which the melting point fell in the range of 185 to 186 °C. For the same compound, the IC50 in data set [1] (setting [3]) is 3 nM. Also, in data set [2] (setting [4]), the IC50 turned out to be 1 nM.

For the compound `O=C(N[C@H]1CC[C@H](C(F)(F)F)CC1)c1cc2nc(Nc3c(Cl)cc(F)cc3Cl)[nH]c2nc1OCC(F)(F)F` [reference compound], the IC50 in data set [1] (setting [5]) amounted to 2 nM; in data set [2] (setting [6]), 43 nM.

Turning to `Cn1c(Nc2c(F)cccc2Cl)nc2cc(C(=O)Nc3ccc(Br)cc3)c(OCC(F)F)nc21` [reference compound], the IC50 was 2 nM in data set [1] (setting [5]) and 72 nM in data set [2] (setting [6]).

As to `Cn1c(Nc2cc(CNC(=O)C3(C(F)(F)F)CC3)ccc2Cl)nc2cc(C(=O)Nc3ccc(F)c(Cl)c3)c(OCC(F)F)cc21` [reference compound], the IC50 in data set [1] (setting [5]) stood at 1 nM; in data set [2] (setting [6]), 8 nM.
